Results as given in article PMC9256669, “Monomethyl auristatin antibody and peptide drug conjugates for trimodal cancer chemo-radio-immunotherapy” (Nature Communications, 2022).
Several values for one entry are separate records, joined by “and”; a condition that tells them apart may be missing. Equal entries are not always repeated. Non-standard residues stand in square brackets, D forms with d. Residues, ends and D or L forms follow the SMILES beside them. *: point of attachment. Dolaproine = CO[C@@H]([C@@H]1CCCN1)[C@@H](C)C(=O)O; Dil = CC[C@H](C)[C@H](NC)[C@@H](CC(=O)O)OC; X1 = C[C@@H](N*)[C@@H](O)c1ccccc1; NMeV = CN[C@H](C(=O)O)C(C)C

How the values were obtained:
MOC1 = experiment: Cytotoxicity, Alamar Blue assay; type: cell-based, murine; settings: for sensitivity in cell culture, Alamar Blue assay: MOC1 and MOC2 cells, cell viability at 72 hr of drug exposure, CDX3379 at nM dosing
Procedure: Murine colorectal (MC38 (ENH204-FP)) cancer cell lines were obtained from Kerafast. Murine head and neck MOC1 and MOC2 were generously provided by Dr. R. Uppaluri. CAL27 PIK3CA H1047R expressing cells and 4MOSC1 cells were generated in Dr. Gutkind’s laboratory and previously characterized[42],[55]. […] MC38 cells were cultured in DMEM supplemented with 10% FBS, 1 mM sodium pyruvate (Gibco), 1% non-essential amino acids (Gibco), and 10 mM HEPES (Gibco). MOC1 and MOC2 cells were cultured in IMDM (Lonza)/F-12K nutrient mixture at a 2:1 mixture with 5% FBS, 5 ng/ml EGF (EMD Millipore), 400 ng/ml hydrocortisone (Sigma), and […] insulin (Sigma). On receipt, each cell line was expanded, cryopreserved as low passage stocks, and routinely tested for mycoplasma. Cisplatin (Enzo Biosciences), paclitaxel (Sigma), and MMAE (Concortis) were reconstituted in DMSO. […] Clinical grade cetuximab (Erbitux, Lilly Medical) was obtained from UCSD Moores Cancer Center Pharmacy.
Cells were plated in 96-well plates and exposed to a drug concentration range for 72 h. Alamar Blue was added to the cells and allowed to incubate for 2–4 h at 37 °C. Plates were analyzed using a plate reader with fluorescence measured at 560 nm. Fractional survival was normalized to untreated control cell fluorescent values. Drug IC50 was calculated using Prism software (GraphPad, La Jolla, CA). Cell viability, cytotoxicity and apoptosis were also measured by ApoTox-Glo Triplex Assay (Promega).
measured by Alamar Blue assay. For Alamar Blue assay cytotoxicity, we measured cell viability at 72 hr of […]

B16 cells = experiment: Cell cycle analysis; type: cell-based, murine; settings: for G2/M fraction: Figure 3c, single replicates
Procedure: Cells were MMAE treated for 24 h, fixed in 70% ethanol, stained with FxCyclePI/RNase solution (Life Technologies), and then analyzed by FACS using FlowJo software.

LL/2 cells = experiment: Cell cycle analysis; type: cell-based, murine
Procedure: Cells were MMAE treated for 24 h, fixed in 70% ethanol, stained with FxCyclePI/RNase solution (Life Technologies), and then analyzed by FACS using FlowJo software. […]
0.9 b) Cell cycle analysis […]
(§1) Source data are provided in Source Data file.

B16 tumors [1] = type: in vivo, C57BL/6 mice
Procedure: At harvest, tumors were isolated, minced, and re-suspended in FBS-free DMEM media supplemented with components of MACs tumor dissociation kit. Tissues were incubated for 15 min at 37 °C and mechanically digested using the gentle MACs Octo dissociator. Tissue suspensions were washed with fresh media and passed through a 100-µm strainer. Samples were split in half for immediate staining or stimulated with the Biolegend Cell Activation Cocktail (with Brefeldin A) for 3 h. Samples were washed with PBS and immediately processed for live/dead cell discrimination using BD LIVE/DEAD™ Fixable Blue Dead Cell Stain Kit. Cells were washed and stained for surface markers for 30 min at 4 °C. Intracellular staining was performed using the eBioscience FOXP3/Transcription Factor Buffer Set from Invitrogen and stained with intracellular antibodies. […] All antibodies were validated by the supplier. All flow cytometry data acquisition was done using BD LSRFortessa and analyzed using FlowJo software. Immune cells were identified by the following characteristics: cytotoxic T cells (CD45+Thy1.2+CD8+), helper T cells (CD45+Thy1.2+CD4+), NK cells (CD45+Thy1.2−NK1.1+).
FSC-A FSC-H SCC-H Live Dead-Blue
Representative flow cytometry plots to gate immune cells quantitated in Fig. 4a, b, 4d &
Supplementary Fig. 10b, c. b) Quantification of tumor immune cell identified by flow cytometry on
Tumors harvested on day 19 and immune cells characterized by flow cytometry. c) Tumor
Mice implanted with tumor
as §1

B16 tumors [2] = experiment: Subcutaneous tumor therapy with CD8 T cell depletion; type: in vivo, C57BL/6 mice; settings: MMAE conjugate + IR, anti-CD8 antibody 10 mg/kg vs control
Procedure: MOC1, B16, LL/2, and MC38 tumor cells were injected subcutaneously into the hindlimbs of 6-week-old female C57BL/6 albino mice in 100 µl of 1:1 Matrigel (BD) and PBS solution. Fractionated IR was delivered focally to the tumor-bearing hindlimbs (3 Gy to MC38 tumors and 5 Gy to LL/2 and B16 tumors) as indicated in figure legends using a PXI X-RAD 225 XL irradiator at maximal dose rate of 3 Gy/min with a beam-conditioning aluminum filter (Precision X-ray Irradiation). For RAG1 KO studies, 6-week-old female Rag1^tm1Mom mice were injected subcutaneously with tumor cells in their hindlimbs (Jackson Labs). For CD8 depletion studies, mice were i.p. injected with anti-CD8 (BioXCell #BE0117) at 10 mg/kg on days −6, −5 and −4 tumor cell implant and then weekly starting on day after tumor cells were injected or control antibody. […] Tumor volumes were measured and calculated using the formula as ½ * length * width^2. Mice were sacrificed when tumor volume reached >1500 mm^3, maximal tumor volume approved on our protocol for subcutaneous tumors.

4MOSC1 tumors = experiment: Orthotopic syngeneic tumor ACPP therapy, tumor volumes; type: in vivo, C57BL/6 mice; settings: orthotopic 4MOSC1 tumors, conjugate monotherapy
Text: Orthotopic tongue xenograft tumors were established in 6-week-old NOD SCID mice by injecting 150,000 CAL27 parental (WT) or PIK3CA H1047R-expressing cells. […] On the last day of tumor xenograft measurements, mice were euthanized, tongues resected, imaged, and fixed. […] IR was delivered as 2 parallel opposed fields.

B16 tumors [3] = experiment: NanoString nCounter PanCancer Mouse Immune Profiling of tumors; type: in vivo, C57BL/6 mice; settings: ACPP-MMAE alone vs vehicle
Procedure: RNA was isolated from cells or tumor tissues and comprehensive immune profiling was analyzed using the NanoString PanCancer IO 360 Panel and NanoString nCounter PanCancer Mouse Immune Profiling gene expression platforms. Gene set analysis with calculated global significance scores and directed significance scores were calculated for treated cells. The Advanced Analysis module of the nSolver software was used to analyze genes associated with listed immune cells in tumors and given a Z-score (n = 3 mice per group). Expression levels of GZMB were analyzed using real-time quantitative PCR. Reverse transcription was performed with the iScript cDNA synthesis kit (Biorad), using aliquots of total RNA extracted with RNeasy Plus Mini Kit (Qiagen). Gene-specific primers were GZMB-F […] and GZMB-R […]. Real-time PCR reactions were performed using the CFX Connect Real-Time PCR System (Biorad) and the amplifications were done using the iTaq Universal SYBR Green Supermix (Biorad). qPCR data were analyzed using the Bio-Rad CFX Maestro software.
Supplementary Data 1: Complete NanoString expression data of Figure 1b. Untreated control (n=2) and 5 nM MMAE treated (n=3) B16 cells were harvested at 72 hrs. RNA was collected and analyzed using NanoString PanCancer IO 360 Panel. […]
were harvested. RNA was collected and analyzed using NanoString nCounter PanCancer Mouse Immune Profiling panel. […]

CC[C@H](C)[C@@H]([C@@H](CC(=O)N1CCC[C@H]1[C@H](OC)[C@@H](C)C(=O)N[C@H](C)[C@@H](O)c1ccccc1)OC)N(C)C(=O)[C@@H](NC(=O)[C@@H](NC)C(C)C)C(C)C [MMAE, monomethyl auristatin E] (H-[NMeV]V[Dil][Dolaproine]-X1)
IC50 (MOC1; MOC1, 72 h drug exposure, Alamar Blue, one value per biological replicate, read-out: IC50 values): 7.93 nM and 8.71 nM and 8.36 nM and 9.59 nM
sensitivity in cell culture, Alamar Blue assay (MOC1): sensitive
G2/M fraction (B16 cells; MMAE 1 nM): 0.13 and 0.12
G2/M fraction (B16 cells; MMAE 2 nM): 0.12 and 0.14
G2/M fraction (B16 cells; MMAE 5 nM): 0.23 and 0.25
G2/M fraction (B16 cells; MMAE 10 nM): 0.73 and 0.76
cell cycle effect (B16 cells; MMAE-treated cells): arresting cells in the radiosensitive mitotic phase of the cell cycle
G2/M fraction (LL/2 cells; MMAE 1 nM, replicate 1): 0.15
G2/M fraction (LL/2 cells; MMAE 1 nM, replicate 2): 0.12
G2/M fraction (LL/2 cells; MMAE 2 nM, replicate 1): 0.13
G2/M fraction (LL/2 cells; MMAE 2 nM, replicate 2): 0.14
G2/M fraction (LL/2 cells; MMAE 5 nM, replicate 1): 0.21
G2/M fraction (LL/2 cells; MMAE 5 nM, replicate 2): 0.23
G2/M fraction (LL/2 cells; MMAE 10 nM, replicate 1): 0.63
G2/M fraction (LL/2 cells; MMAE 10 nM, replicate 2): 0.53

CDX3379-MMAE: anti-HER3 antibody CDX3379 with 4 MMAE per antibody via MC-VC-PABC linker, labeled with Cy5
sensitivity in cell culture, Alamar Blue assay (MOC1): sensitive
tumor CD8 T cell infiltration, with IR (B16 tumors [1]; B16 tumors, flow cytometry, drug + IR): significantly increased CD8 tumor cell infiltration
Flow cytometry (Figure 4b) (B16 tumors [1]; without IR, individual tumors): 3.89 and 16.51 and 9.62
effect of CD8 T cell depletion on tumor control (B16 tumors [2]): significantly larger

cyclo(RGD)fc-MC-HN-peg8-e9-oPLGC(Me)AG-r9-c-(MC-VC-PABC-MMAE)-CONH2 [ACPP-MMAE]
tumor growth (4MOSC1 tumors): modest tumor growth delay
Flow cytometry, CD4+ (B16 tumors [1]; mouse, in vivo): 0.17 and 0.11
Flow cytometry, CD45+ (B16 tumors [1]; mouse, in vivo): 9.46 and 7.71
Flow cytometry, CD45 negative (B16 tumors [1]; mouse, in vivo): 89.90 and 91.80
Flow cytometry, NK cells (B16 tumors [1]; mouse, in vivo): 0.17 and 0.11
tumor infiltration of immune cell types (NanoString) (B16 tumors [3]): minimal effects
effect of CD8 T cell depletion on tumor control (B16 tumors [2]): abrogated durable tumor control
